Laboratory results as given in patent US11446287B2, “Compounds and methods for EP300 or CBP modulation and indications therefor” (Opna Immuno-Oncology SA, priority 2019, dated 2022).

Target: T1, Recombinant human BRD4 containing dual bromodomains (BRD4-BD12 (1-477)) (Homo sapiens, UniProt O60885)
T1 construct: Recombinant human BRD4 containing dual bromodomains (BRD4-BD12 (1-477)); made in house; host or cells: E. coli BL21-CodonPlus (DE3), modified pET vector
Experiment: BRD4 Alphascreen binding assay
Outline: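 AlphaScreen proximity between Ni-chelate-bound BRD4-BD12 (1-477) and streptavidin-captured H4 K5/K8/K12/K16-acetyl peptide measured after 1 h room-temperature compound incubation and 30 min with 7.5 μg/ml beads. Buffer: 50 mM HEPES pH 7.5, 50 mM NaCl, 0.01% BSA, 0.01% Triton X-100; data plate-normalized and four-parameter fit for IC50.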

Structure (SMILES)	IC50
Cc1noc(C)c1-c1cnc2c(c1)c(-c1ccc(C(=O)O)cc1Cl)cn2C(c1ccccn1)C1CCCC1 (stereo not drawn) [P-0027, 3-chloro-4-(1-(cyclopentyl(pyridin-2-yl)methyl)-5-(3,5-dimethylisoxazol-4-yl)-1H-pyrrolo[2,3-b]pyridin-3-yl)benzoic acid]	1 to 8 µM
Cc1cc(-c2cn(C(c3ccccn3)C3CCCC3)c3ncc(-c4c(C)noc4C)cc23)ccc1C(=O)O (stereo not drawn) [P-0028, 4-(1-(cyclopentyl(pyridin-2-yl)methyl)-5-(3,5-dimethylisoxazol-4-yl)-1H-pyrrolo[2,3-b]pyridin-3-yl)-2-methylbenzoic acid]	1 to 8 µM
Cc1noc(C)c1-c1cnc2c(c1)c(-c1ccc(C(=O)O)c(C(F)(F)F)c1)cn2C(c1ccccn1)C1CCCC1 (stereo not drawn) [P-0029, 4-(1-(cyclopentyl(pyridin-2-yl)methyl)-5-(3,5-dimethylisoxazol-4-yl)-1H-pyrrolo[2,3-b]pyridin-3-yl)-2-(trifluoromethyl)benzoic acid]	1 to 8 µM
Cc1noc(C)c1-c1cnc2c(c1)c(-c1ccc(C(=O)O)c(O)c1)cn2C(c1ccccn1)C1CCCC1 (stereo not drawn) [P-0030, 4-(1-(cyclopentyl(pyridin-2-yl)methyl)-5-(3,5-dimethylisoxazol-4-yl)-1H-pyrrolo[2,3-b]pyridin-3-yl)-2-hydroxybenzoic acid]	8 to 1000 µM
Cc1noc(C)c1-c1cnc2c(c1)c(-c1ccc(CC(=O)O)cc1)cn2C(c1ccccn1)C1CCCC1 (stereo not drawn) [P-0031, 2-(4-(1-(cyclopentyl(pyridin-2-yl)methyl)-5-(3,5-dimethylisoxazol-4-yl)-1H-pyrrolo[2,3-b]pyridin-3-yl)phenyl)acetic acid]	1 to 8 µM
Cc1noc(C)c1-c1cnc2c(c1)c(-c1ccc(C(C)(C)C(=O)O)cc1)cn2C(c1ccccn1)C1CCCC1 (stereo not drawn) [P-0032, 2-(4-(1-(cyclopentyl(pyridin-2-yl)methyl)-5-(3,5-dimethylisoxazol-4-yl)-1H-pyrrolo[2,3-b]pyridin-3-yl)phenyl)-2-methylpropanoic acid]	1 to 8 µM
Cc1noc(C)c1-c1cnc2c(c1)c(-c1ccc(C3(C(=O)O)CC3)cc1)cn2C(c1ccccn1)C1CCCC1 (stereo not drawn) [P-0033, 1-(4-(1-(cyclopentyl(pyridin-2-yl)methyl)-5-(3,5-dimethylisoxazol-4-yl)-1H-pyrrolo[2,3-b]pyridin-3-yl)phenyl)cyclopropane-1-carboxylic acid]	1 to 8 µM
Cc1noc(C)c1-c1cnc2c(c1)c(-c1ccc(C(F)(F)C(=O)O)cc1)cn2C(c1ccccn1)C1CCCC1 (stereo not drawn) [P-0034, 2-(4-(1-(cyclopentyl(pyridin-2-yl)methyl)-5-(3,5-dimethylisoxazol-4-yl)-1H-pyrrolo[2,3-b]pyridin-3-yl)phenyl)-2,2-difluoroacetic acid]	1 to 8 µM
COc1ncccc1-n1cc(-c2ccc(C(=O)O)cc2OC(F)(F)F)c2cc(-c3c(C)noc3C)cnc21 [P-0316, 4-(5-(3,5-dimethylisoxazol-4-yl)-1-(2-methoxypyridin-3-yl)-1H-pyrrolo[2,3-b]pyridin-3-yl)-3-(trifluoromethoxy)benzoic acid]	1 to 8 µM
Cc1ncccc1-n1cc(-c2ccc(C(=O)O)cc2OC(F)(F)F)c2cc(-c3c(C)noc3C)cnc21 [P-0317, 4-(5-(3,5-dimethylisoxazol-4-yl)-1-(2-methylpyridin-3-yl)-1H-pyrrolo[2,3-b]pyridin-3-yl)-3-(trifluoromethoxy)benzoic acid]	8 to 1000 µM
Cc1noc(C)c1-c1cnc2c(c1)c(-c1ccc(C(=O)O)cc1OC(F)(F)F)cn2-c1cnn(C)c1 [P-0318, 4-(5-(3,5-dimethylisoxazol-4-yl)-1-(1-methyl-1H-pyrazol-4-yl)-1H-pyrrolo[2,3-b]pyridin-3-yl)-3-(trifluoromethoxy)benzoic acid]	0.0001 to 1 µM
Cc1noc(C)c1-c1cnc2c(c1)c(-c1ccc(C(=O)O)cc1OC(F)(F)F)cn2-c1cncnc1 [P-0319, 4-(5-(3,5-dimethylisoxazol-4-yl)-1-(pyrimidin-5-yl)-1H-pyrrolo[2,3-b]pyridin-3-yl)-3-(trifluoromethoxy)benzoic acid]	1 to 8 µM
